Assay results: patent US20100129434A1, “COMPOSITIONS AND METHODS FOR THE TREATMENT OF MUCORMYCOSIS AND OTHER FUNGAL DISEASES” (priority 2006, published 2010)
“Also recorded” adds a separate entry of the source.

Columns and labels:
[1] = Deferasirox toxicity studies in neutropenic mice; type: in vivo; conditions: uninfected neutropenic mice
Experimental: Toxicity of deferasirox in neutropenic mice was evaluated. Mice were rendered neutropenic as above and treated with deferasirox at 10 mg/kg twice every day or every other day for 7 days. Mice from three different groups (i.e. placebo, deferasirox daily treatment, and deferasirox every other day treatment) were sacrificed on day 3 or 8 and blood was collected and sent for Charles River Laboratories for evaluation. Additionally, bone marrow smears were prepared from femurs, and tissues were collected, preserved in zinc-buffered formalin, embedded in paraffin, sectioned at 5 μm, and stained with hematoxylin and eosin. The resulting slides were examined by a board-certified veterinary pathologist at Charles River Laboratories.
Because deferasirox dosing every other day was optimal in the neutropenic model, we sought to identify any potential toxicity caused by daily dosing of deferasirox in neutropenic mice. Mice were made neutropenic with cyclophosphamide as above, but were not infected. The mice were treated with deferasirox 10 mg/kg twice daily for seven days, 10 mg/kg twice every other day for 4 doses, or placebo. Terminal bleeds were performed on day 3 or day 8 to measure complete blood count, serum chemistries, and liver function tests. […]

rFTR1 = test: Expression analysis of the high affinity iron permease gene (rFTR1) by RT-PCR; type: cell-based, Rhizopus oryzae; conditions: R. oryzae 99-880 mycelia; 2 mM deferasirox plus 350 μM ferric chloride, 1 h at 37° C.
Experimental: R. oryzae 99-880 plugs taken from a confluent PDA plate were grown in potato dextrose broth overnight at 37° C. with shaking. Mycelia were collected aseptically and transferred to fresh PDB flasks containing 350 μM ferric chloride (to suppress the expression of rFTR1), 350 μM ferric chloride plus 2 mM deferasirox to test iron chelation, or 2 mM deferasirox plus 6 mM ferric chloride to supersaturate the added deferasirox. The flasks were incubated for 1 h at 37° C. with shaking. Mycelia were collected by filtration and ground in liquid nitrogen using mortar and pestle. Total RNA was extracted using RNeasy Plabt Mini™ kit (Qiagen®) with RLC buffer. The RNA was reverse-transcribed with oligo(dT) primer using the SuperScript™ First-Strand Synthesis System (Invitrogen®) to generate first-strand cDNA. The products were diluted and used in PCR to detect the expression of FTR1 of R. oryzae and 18 s rDNA gene. The sequences of the PCR primers are as follows: sense primer 5′-[…] -3′ and anti-sense primer 5′-[…] -3′ for rFTR1 to amplify of R. oryzae; and sense primer 5′-[…]′T′[…] -3′ and anti-sense primer 5′-[…] -3′ for 18 s rDNA gene. The PCR products were separated on a 2% agarose gel containing 0.1 μg/ml ethidium bromide. Both primer sets were designed to amplify a 400 by bands. […]

rFTR1 promoter = test: Green fluorescent protein (GFP) reporter assay, rFTR1 promoter; type: cell-based, Rhizopus oryzae; conditions: R. oryzae M16 transformed with rFTR1p::GFP
Description: A 1.5 kb fragment upstream of the rFTR10RF was PCR amplified using the following primer pair: sense primer 5′-[…]-3′; and anti-sense primer 5′-[…]-3′. A 2.1 kb fragment containing the constitutively expressed actin promoter was also PCR amplified to use as a control using the following primer pair: sense 5′[…]-3′; and anti-sense:5′ […]-3. Amplified fragments were ligated into the XbaI and EagI sites of plasmid pyr225b (35). GFP was amplified from pGFPB21-43.31 (36), and cloned downstream of either promoter into EagI-SacI sites of the plasmid downstream of either promoter. Finally, a 2.1 kb fragment representing the ORF of pyrF and its native promoter was cloned into SpeI-ClaI sites of the plasmid to serve as a selection marker. […] Purified transformants selected on uracil negative plates were analyzed by Southern blotting.
Expression of rFTR1p and ACT1p were studied in transformants grown in iron-replete medium (i.e. YNB+CSM-URA) or iron-depleted conditions (i.e. YNB+CSM-URA supplemented with 2 mM deferasirox). […] Additionally, a 1 ml sample from each culture was also used to quantify the fluorescence emission using a FACSCaliber™ (Becton Dickinson®) instrument equipped with an argon laser emitting at 488 nm. Spores were gated by forward and side scatter and fluorescence measured in FL1. […]

Compound: O=C(O)c1ccc(-n2nc(-c3ccccc3O)nc2-c2ccccc2O)cc1 [Deferasirox, 4-[3,5-Bis(2-hydroxyphenyl)-1H-1,2,4-triazol-1-yl]-benzoic acid]
- white cell, neutrophil, platelet counts, hemoglobin, serum chemistries, liver function tests versus placebo ([1]; 10 mg/kg twice daily 7 days or twice every other day 4 doses, day 3 or 8): No differences
- organ toxicity by histopathology ([1]; 10 mg/kg twice daily or twice every other day): no organ-specific toxicity attributable to deferasirox
- rFTR1 gene expression (RT-PCR) (rFTR1): expressed; also recorded: induces rFTR1 gene expression
- GFP fluorescence by confocal microscopy (rFTR1 promoter; 2 mM deferasirox): fluorescent
- fluorescent spores by flow cytometry (rFTR1 promoter; 2 mM deferasirox overnight, iron-replete less than 1%): 43%
